Test results published in patent US10723733B2, “Hepatitis B antiviral agents” (Enanta Pharmaceuticals, Inc., priority 2017, dated 2020).

Tested on: HBV
Test: HepAD38 antiviral assay: reduction of viral product accumulation (virion DNA by qPCR, HBsAg/HBeAg by ELISA)
Type: cell-based
Conditions: Hepatitis B virus, 120 h, HepAD38 cells, 50% reduction of viral product accumulation vs no drug controls, five days after compound addition
Experimental: Methods: HepAD38 cells are maintained as previously reported (Ladner et al, Antimicrob. Agents Chemother. 1997, […], 1715). Briefly, cells are passaged upon attaining confluency in DMEM/F12 media in the presence of 10% FBS, Penn/Strep, 250 μg/mL G418, and 1 μg/ml tetracycline. Novel compounds are screened by first washing cells three times with PBS to remove tetracycline, and plating in 96 well plates at 35,000 cells/well. Compounds dissolved in DMSO are then diluted 1:200 into wells containing cells. Five days after compound addition, material is harvested for analysis. For an extended 8 day analysis, cells are plated and treated as described above, but media and compound are refreshed on d2 and d5 post initial treatment.
On harvest day, virion DNA is obtained by lysing with Sidestep Lysis and Stabilization Buffer and then quantified via quantitative real time PCR. Commercially available ELISA kits are used to quantitate the viral proteins HBsAg (Alpco) or HbeAg (US Biological) by following the manufacturer's recommended protocol after diluting samples to match the linear range of their respective assays. Irrespective of readout, compound concentrations that reduce viral product accumulation in the cell lysates or supernatants by 50% relative to no drug controls (EC50) are reported; EC50 ranges are as follows: A<0.1 μM; B 0.1-1 μM; C>1 μM.

| Compound | EC50 (class symbols) [nM] | EC50 (given as numeric bound) [nM] |
| --- | --- | --- |
| CC(C)(C)OC(=O)N[C@H]1CC2=C(c3cnn(C(F)F)c3)[C@H](c3ccc(F)cc3Cl)N=C(c3nccs3)N2C1 [Example 2] | 100 to 1000 |  |
| O=S(=O)(N[C@H]1CC2=C(c3cc[nH]n3)[C@H](c3ccc(F)cc3Cl)N=C(c3nccs3)N2C1)C1CC1 [Example 4] |  | > 100 |
| CC(C)n1cc(C2=C3C[C@H](NS(=O)(=O)C4CC4)CN3C(c3nccs3)=N[C@H]2c2ccc(F)cc2Cl)cn1 [Example 5] | < 100 |  |
| O=S(=O)(N[C@H]1CC2=C(c3cnn(CC(F)(F)F)c3)[C@H](c3ccc(F)cc3Cl)N=C(c3nccs3)N2C1)C1CC1 [Example 7] | < 100 |  |
| COC(=O)N[C@H]1CC2=C(c3cnn(C(F)F)c3)[C@H](c3ccc(F)cc3Cl)N=C(c3nccs3)N2C1 [Example 14] | < 100 |  |
| CS(=O)(=O)NC(=O)N[C@H]1CC2=C(c3cnn(C(F)F)c3)[C@H](c3ccc(F)cc3Cl)N=C(c3nccs3)N2C1 [Example 15] |  | > 100 |
| O=C(N[C@H]1CC2=C(c3cnn(C(F)F)c3)[C@H](c3ccc(F)cc3Cl)N=C(c3nccs3)N2C1)NS(=O)(=O)C1CC1 [Example 16] |  | > 100 |
| O=C(N[C@H]1CC2=C(c3cnn(C(F)F)c3)[C@H](c3ccc(F)cc3Cl)N=C(c3nccs3)N2C1)NS(=O)(=O)c1ccccc1 [Example 17] |  | > 100 |
| CN(C)C(=O)N[C@H]1CC2=C(c3cnn(C(F)F)c3)[C@H](c3ccc(F)cc3Cl)N=C(c3nccs3)N2C1 [Example 18] | < 100 |  |
| O=S(=O)(N[C@H]1CC2=C(c3cnn(C(F)F)c3)[C@H](c3ccc(F)cc3Cl)N=C(c3nccs3)N2C1)N1CCCC1 [Example 19] | < 100 |  |
| CC(=O)NS(=O)(=O)N[C@H]1CC2=C(c3cnn(C(F)F)c3)[C@H](c3ccc(F)cc3Cl)N=C(c3nccs3)N2C1 [Example 20] |  | > 400 |
| CCS(=O)(=O)N[C@H]1CC2=C(c3cnn(C(F)F)c3)[C@H](c3ccc(F)cc3Cl)N=C(c3nccs3)N2C1 [Example 21] | < 100 |  |
| CCCS(=O)(=O)N[C@H]1CC2=C(c3cnn(C(F)F)c3)[C@H](c3ccc(F)cc3Cl)N=C(c3nccs3)N2C1 [Example 22] | < 100 |  |
| CCCCS(=O)(=O)N[C@H]1CC2=C(c3cnn(C(F)F)c3)[C@H](c3ccc(F)cc3Cl)N=C(c3nccs3)N2C1 [Example 23] | < 100 |  |
| CC(C)S(=O)(=O)N[C@H]1CC2=C(c3cnn(C(F)F)c3)[C@H](c3ccc(F)cc3Cl)N=C(c3nccs3)N2C1 [Example 24] | < 100 |  |
| Fc1ccc([C@@H]2N=C(c3nccs3)N3C[C@@H](OCc4ccccc4)CC3=C2c2cnn(C(F)F)c2)c(Cl)c1 [Example 25] |  | > 200 |
| OCC(CO)CC1=C(c2cnn(C(F)F)c2)[C@H](c2ccc(F)cc2Cl)N=C(c2nccs2)N1 [Example 26] |  | > 100 |
| OCC1CC2=C(c3cnn(C(F)F)c3)[C@H](c3ccc(F)cc3Cl)N=C(c3nccs3)N2C1 (stereo partly drawn) [Example 27] |  | > 100 |
| CS(=O)(=O)OCC1CC2=C(c3cnn(C(F)F)c3)[C@H](c3ccc(F)cc3Cl)N=C(c3nccs3)N2C1 (stereo partly drawn) [Example 28] |  | > 100 |

| Compound | EC50 (class symbols) [nM] | EC50 (given as numeric bound) [nM] |
| --- | --- | --- |
| CC(=O)NCC1CC2=C(c3cnn(C(F)F)c3)[C@H](c3ccc(F)cc3Cl)N=C(c3nccs3)N2C1 (stereo partly drawn) [Example 29] |  | > 100 |
| CS(=O)(=O)NCC1CC2=C(c3cnn(C(F)F)c3)[C@H](c3ccc(F)cc3Cl)N=C(c3nccs3)N2C1 (stereo partly drawn) [Example 30] |  | > 100 |
| COC(=O)NCC1CC2=C(c3cnn(C(F)F)c3)[C@H](c3ccc(F)cc3Cl)N=C(c3nccs3)N2C1 (stereo partly drawn) [Example 31] |  | > 100 |
| CN(C)C(=O)NCC1CC2=C(c3cnn(C(F)F)c3)[C@H](c3ccc(F)cc3Cl)N=C(c3nccs3)N2C1 (stereo partly drawn) [Example 32] |  | > 100 |
| O=S(=O)(NCC1CC2=C(c3cnn(C(F)F)c3)[C@H](c3ccc(F)cc3Cl)N=C(c3nccs3)N2C1)C1CC1 (stereo partly drawn) [Example 33] |  | > 100 |
| CS(=O)(=O)OC[C@]1(F)CC2=C(c3cnn(C(F)F)c3)[C@H](c3ccc(F)cc3Cl)N=C(c3nccs3)N2C1 [Example 34] |  | > 400 |
| CS(=O)(=O)OC[C@@]1(F)CC2=C(c3cnn(C(F)F)c3)[C@H](c3ccc(F)cc3Cl)N=C(c3nccs3)N2C1 [Example 35] | 100 to 1000 |  |
| C[C@]1(CN=[N+]=[N-])CC2=C(c3cnn(C(F)F)c3)[C@H](c3ccc(F)cc3Cl)N=C(c3nccs3)N2C1 [Example 36] |  | > 400 |
| C[C@@]1(CN=[N+]=[N-])CC2=C(c3cnn(C(F)F)c3)[C@H](c3ccc(F)cc3Cl)N=C(c3nccs3)N2C1 [Example 37] |  | > 400 |
| CC1(CNS(C)(=O)=O)CC2=C(c3cnn(C(F)F)c3)[C@H](c3ccc(F)cc3Cl)N=C(c3nccs3)N2C1 (stereo partly drawn) [Example 38] |  | > 400 |
| C=CC[C@]1(COS(C)(=O)=O)CC2=C(c3cnn(C(F)F)c3)[C@H](c3ccc(F)cc3Cl)N=C(c3nccs3)N2C1 [Example 39] |  | > 400 |
| C=CC[C@@]1(COS(C)(=O)=O)CC2=C(c3cnn(C(F)F)c3)[C@H](c3ccc(F)cc3Cl)N=C(c3nccs3)N2C1 [Example 40] |  | > 400 |
| [N-]=[N+]=NCC1(F)CC2=C(c3cnn(C(F)F)c3)[C@H](c3ccc(F)cc3Cl)N=C(c3nccs3)N2C1 (stereo partly drawn) [Example 41] |  | > 400 |
| CN(C)C(=O)NCC1(C)CC2=C(c3cnn(C(F)F)c3)[C@H](c3ccc(F)cc3Cl)N=C(c3nccs3)N2C1 (stereo partly drawn) [Example 42] |  | > 400 |
| CS(=O)(=O)NCC1(F)CC2=C(c3cnn(C(F)F)c3)[C@H](c3ccc(F)cc3Cl)N=C(c3nccs3)N2C1 (stereo partly drawn) [Example 43] | 100 to 1000 |  |
| CN(C)C(=O)NCC1(F)CC2=C(c3cnn(C(F)F)c3)[C@H](c3ccc(F)cc3Cl)N=C(c3nccs3)N2C1 (stereo partly drawn) [Example 44] | 100 to 1000 |  |
| OC1CCCC1CC1=C(c2cnn(C(F)F)c2)[C@H](c2ccc(F)cc2Cl)N=C(c2nccs2)N1 (stereo partly drawn) [Example 45] | 100 to 1000 |  |
| OC1CCCCC1CC1=C(c2cnn(C(F)F)c2)[C@H](c2ccc(F)cc2Cl)N=C(c2nccs2)N1 (stereo partly drawn) [Example 46] | 100 to 1000 |  |
| Fc1ccc([C@@H]2N=C(c3nccs3)N3C(=C2c2cnn(C(F)F)c2)CC2CCCC23)c(Cl)c1 (stereo partly drawn) [Example 47] |  | > 400 |

| Compound | EC50 (class symbols) [nM] | EC50 (given as numeric bound) [nM] |
| --- | --- | --- |
| [N-]=[N+]=N[C@@]1(CO)CC2=C(c3cnn(C(F)F)c3)[C@H](c3ccc(F)cc3Cl)N=C(c3nccs3)N2C1 [Example 48] |  | > 400 |
| CS(=O)(=O)OC[C@]1(N=[N+]=[N-])CC2=C(c3cnn(C(F)F)c3)[C@H](c3ccc(F)cc3Cl)N=C(c3nccs3)N2C1 [Example 49] | 100 to 1000 |  |
| [N-]=[N+]=N[C@]1(CO)CC2=C(c3cnn(C(F)F)c3)[C@H](c3ccc(F)cc3Cl)N=C(c3nccs3)N2C1 [Example 50] | < 100 |  |
| CS(=O)(=O)OC[C@@]1(N=[N+]=[N-])CC2=C(c3cnn(C(F)F)c3)[C@H](c3ccc(F)cc3Cl)N=C(c3nccs3)N2C1 [Example 51] | 100 to 1000 |  |
| [N-]=[N+]=NC[C@]1(N=[N+]=[N-])CC2=C(c3cnn(C(F)F)c3)[C@H](c3ccc(F)cc3Cl)N=C(c3nccs3)N2C1 [Example 52] |  | > 400 |
| [N-]=[N+]=NC[C@@]1(N=[N+]=[N-])CC2=C(c3cnn(C(F)F)c3)[C@H](c3ccc(F)cc3Cl)N=C(c3nccs3)N2C1 [Example 53] |  | > 400 |
| COC(=O)OC[C@]1(N=[N+]=[N-])CC2=C(c3cnn(C(F)F)c3)[C@H](c3ccc(F)cc3Cl)N=C(c3nccs3)N2C1 [Example 54] |  | > 400 |
| COC(=O)OC[C@@]1(N=[N+]=[N-])CC2=C(c3cnn(C(F)F)c3)[C@H](c3ccc(F)cc3Cl)N=C(c3nccs3)N2C1 [Example 55] | < 100 |  |
| CC(=O)OC[C@]1(N=[N+]=[N-])CC2=C(c3cnn(C(F)F)c3)[C@H](c3ccc(F)cc3Cl)N=C(c3nccs3)N2C1 [Example 58] |  | > 400 |
| CC(=O)OC[C@@]1(N=[N+]=[N-])CC2=C(c3cnn(C(F)F)c3)[C@H](c3ccc(F)cc3Cl)N=C(c3nccs3)N2C1 [Example 59] | < 100 |  |
| COC(=O)[C@](N)(CO)CC1=C(c2ccn(C(F)F)n2)[C@H](c2ccc(F)cc2Cl)N=C(c2nccs2)N1 [Example 62] |  | > 400 |
| COC(=O)[C@](CO)(CC1=C(c2ccn(C(F)F)n2)[C@H](c2ccc(F)cc2Cl)N=C(c2nccs2)N1)NC(=O)OC(C)(C)C [Example 63] |  | > 400 |
| COC(=O)[C@@]1(NC(=O)OC(C)(C)C)CC2=C(c3ccn(C(F)F)n3)[C@H](c3ccc(F)cc3Cl)N=C(c3nccs3)N2C1 [Example 64] |  | > 400 |
| COC(=O)[C@]1(NC(=O)OC(C)(C)C)CC2=C(c3ccn(C(F)F)n3)[C@H](c3ccc(F)cc3Cl)N=C(c3nccs3)N2C1 [Example 65] |  | > 400 |
| COC(=O)[C@@]1(NS(C)(=O)=O)CC2=C(c3ccn(C(F)F)n3)[C@H](c3ccc(F)cc3Cl)N=C(c3nccs3)N2C1 [Example 67] |  | > 400 |
| COC(=O)[C@@]1(NS(=O)(=O)C2CC2)CC2=C(c3ccn(C(F)F)n3)[C@H](c3ccc(F)cc3Cl)N=C(c3nccs3)N2C1 [Example 68] |  | > 400 |
| CS(=O)(=O)N[C@]1(CO)CC2=C(c3ccn(C(F)F)n3)[C@H](c3ccc(F)cc3Cl)N=C(c3nccs3)N2C1 [Example 69] |  | > 400 |
| O=S(=O)(N[C@]1(CO)CC2=C(c3ccn(C(F)F)n3)[C@H](c3ccc(F)cc3Cl)N=C(c3nccs3)N2C1)C1CC1 [Example 70] | 100 to 1000 |  |
| CNC(=O)OC[C@@]1(NC(=O)OC)CC2=C(c3ccn(C(F)F)n3)[C@H](c3ccc(F)cc3Cl)N=C(c3nccs3)N2C1 [Example 71] |  | > 400 |
